The numbers were not newly measured in patent US20250212890A1, “COMBINATIONS OF AV3 MUTANT POLYPEPTIDES AND Bt TOXINS FOR PEST CONTROL” (Vestaron Corporation, priority 2022, published 2025), which cites them from elsewhere.

Data set [1] deals with crustacean and insect sodium channels. The settings on record: Moran et al., Toxicon 2009.
Data set [2] concerns mammalian sodium channels. The settings on record: Moran et al., Toxicon 2009.

Av3: in data set [1], the “selectivity for crustacean and insect sodium channels” value is given as “high selectivity”. Further, the “selectivity for mammalian sodium channels” value in data set [2] is “low selectivity”.
